Source: ChEMBL document CHEMBL3393043, “Computer-aided identification of novel anticancer compounds with a possible dual HER1/HER2 inhibition mechanism” (Bioorg Med Chem Lett, 2015)

Tests used:
[1] = Antiproliferative activity against human BT474 cells overexpressing HER2 at 10 uM by MTT assay; type: functional; conditions: BT-474
[2] = Antiproliferative activity against human SKBR3 cells overexpressing HER2 at 10 uM by MTT assay; type: functional; conditions: SK-BR-3
[3] = Antiproliferative activity against human BT474 cells overexpressing HER2 by MTT assay; type: functional, cell-based; conditions: BT-474
[4] = Antiproliferative activity against human SKBR3 cells overexpressing HER2 by MTT assay; type: functional, cell-based; conditions: SK-BR-3
[5] = molecular target: T1, Epidermal growth factor receptor (Homo sapiens, UniProt P00533); assay: Inhibition of human full length HER1 assessed as phosphorylation state by ELISA assay
T1 sequence (P00533 whole entry): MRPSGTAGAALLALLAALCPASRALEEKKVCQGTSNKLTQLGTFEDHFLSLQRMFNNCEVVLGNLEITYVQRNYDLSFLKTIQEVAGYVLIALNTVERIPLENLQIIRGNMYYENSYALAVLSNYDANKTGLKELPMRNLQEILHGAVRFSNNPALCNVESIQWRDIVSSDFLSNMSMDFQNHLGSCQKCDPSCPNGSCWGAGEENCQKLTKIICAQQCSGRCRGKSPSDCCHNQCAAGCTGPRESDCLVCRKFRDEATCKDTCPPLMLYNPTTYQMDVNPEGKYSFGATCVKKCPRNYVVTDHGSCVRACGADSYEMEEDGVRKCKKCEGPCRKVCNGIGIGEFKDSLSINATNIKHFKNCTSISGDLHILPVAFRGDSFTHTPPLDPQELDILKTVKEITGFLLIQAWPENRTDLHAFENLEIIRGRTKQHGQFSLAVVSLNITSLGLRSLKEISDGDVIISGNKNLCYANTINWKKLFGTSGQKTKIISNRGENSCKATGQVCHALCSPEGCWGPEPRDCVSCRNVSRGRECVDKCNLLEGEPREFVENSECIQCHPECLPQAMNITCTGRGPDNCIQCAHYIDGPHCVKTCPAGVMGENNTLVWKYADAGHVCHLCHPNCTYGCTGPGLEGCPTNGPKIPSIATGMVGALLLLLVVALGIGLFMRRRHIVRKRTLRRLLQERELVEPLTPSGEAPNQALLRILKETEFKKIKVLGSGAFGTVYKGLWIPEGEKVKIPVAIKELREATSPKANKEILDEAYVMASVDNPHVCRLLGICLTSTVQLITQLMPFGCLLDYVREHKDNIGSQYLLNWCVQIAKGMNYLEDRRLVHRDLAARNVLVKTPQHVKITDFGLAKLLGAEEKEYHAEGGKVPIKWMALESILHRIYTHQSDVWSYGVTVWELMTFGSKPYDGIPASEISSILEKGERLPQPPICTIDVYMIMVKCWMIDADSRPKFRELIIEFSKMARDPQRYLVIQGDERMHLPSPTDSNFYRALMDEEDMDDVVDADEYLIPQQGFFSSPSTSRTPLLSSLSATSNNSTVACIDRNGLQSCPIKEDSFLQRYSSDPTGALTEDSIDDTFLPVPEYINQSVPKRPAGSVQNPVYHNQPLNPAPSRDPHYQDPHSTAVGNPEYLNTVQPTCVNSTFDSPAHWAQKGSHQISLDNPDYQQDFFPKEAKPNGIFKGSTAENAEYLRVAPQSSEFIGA

[6] = molecular target: T2, Receptor tyrosine-protein kinase erbB-2 (Homo sapiens, UniProt P04626); assay: Inhibition of human full length HER2 assessed as phosphorylation state at 10 uM by ELISA assay
T2 sequence (P04626 whole entry): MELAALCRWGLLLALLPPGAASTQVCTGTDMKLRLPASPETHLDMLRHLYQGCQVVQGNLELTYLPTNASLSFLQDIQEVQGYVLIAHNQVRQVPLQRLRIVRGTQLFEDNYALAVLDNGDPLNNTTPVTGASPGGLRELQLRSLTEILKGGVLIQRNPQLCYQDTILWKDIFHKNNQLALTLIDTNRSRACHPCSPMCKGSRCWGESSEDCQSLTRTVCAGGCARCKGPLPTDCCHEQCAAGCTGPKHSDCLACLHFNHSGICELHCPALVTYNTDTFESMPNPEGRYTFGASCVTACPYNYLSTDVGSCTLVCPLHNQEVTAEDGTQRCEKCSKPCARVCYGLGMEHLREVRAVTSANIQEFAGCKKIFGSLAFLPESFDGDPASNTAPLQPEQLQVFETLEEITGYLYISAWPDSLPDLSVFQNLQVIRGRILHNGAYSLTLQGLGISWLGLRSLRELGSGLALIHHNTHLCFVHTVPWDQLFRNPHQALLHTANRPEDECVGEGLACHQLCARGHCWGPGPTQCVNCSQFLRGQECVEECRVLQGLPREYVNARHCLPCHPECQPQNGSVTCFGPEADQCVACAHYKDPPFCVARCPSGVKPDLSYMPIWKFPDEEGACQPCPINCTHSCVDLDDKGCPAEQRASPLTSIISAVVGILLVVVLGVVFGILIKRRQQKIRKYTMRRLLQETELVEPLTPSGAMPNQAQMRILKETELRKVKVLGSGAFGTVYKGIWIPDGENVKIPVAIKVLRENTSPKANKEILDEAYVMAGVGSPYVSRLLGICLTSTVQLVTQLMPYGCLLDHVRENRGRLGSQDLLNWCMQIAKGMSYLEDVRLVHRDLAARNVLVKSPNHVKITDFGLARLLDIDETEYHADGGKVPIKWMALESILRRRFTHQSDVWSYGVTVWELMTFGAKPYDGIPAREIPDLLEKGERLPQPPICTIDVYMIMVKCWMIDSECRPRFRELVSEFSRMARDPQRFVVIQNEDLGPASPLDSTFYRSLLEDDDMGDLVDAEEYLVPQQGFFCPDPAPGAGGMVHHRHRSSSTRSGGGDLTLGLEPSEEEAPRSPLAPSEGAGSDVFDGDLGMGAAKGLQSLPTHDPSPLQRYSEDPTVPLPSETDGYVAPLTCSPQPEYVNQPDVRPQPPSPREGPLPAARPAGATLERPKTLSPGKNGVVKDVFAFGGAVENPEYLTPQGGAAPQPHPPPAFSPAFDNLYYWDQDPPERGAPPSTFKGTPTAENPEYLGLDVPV

[7] = molecular target: T1, Epidermal growth factor receptor; assay: Inhibition of human full length HER1 assessed as phosphorylation state at 10 uM by ELISA assay
[8] = molecular target: T2, Receptor tyrosine-protein kinase erbB-2; assay: Inhibition of human full length HER2 assessed as phosphorylation state by ELISA assay

CN1C(=O)C(O)(CC(=O)c2cccc(-n3cccc3)c2)c2ccccc21 (configuration not stated)
inhibition at 10 µM [1]: 7.25%

Brc1cccnc1Nc1nnc(Cc2c[nH]c3ccccc23)o1
inhibition at 10 µM [2]: 37.2%

O=C(CSc1nc(-c2cccs2)cc(C(F)(F)F)n1)Nc1ccc2c(c1)OCO2
inhibition at 10 µM [1]: 47.9%

Cc1ccc2c(C)nc(Nc3nc(O)cc(CSc4nnnn4-c4ccccc4)n3)nc2c1
IC50 [3]: 755 nM
inhibition at 10 µM [1]: 72.7%
IC50 [4]: 1030 nM
IC50 [5]: 3920 nM
inhibition [6]: 85.8%
inhibition [7]: 83%
IC50 [8]: 6030 nM

Brc1cccc(CNc2ccc(-c3nc4ccccc4o3)cc2)c1
IC50 [3]: 343 nM
inhibition at 10 µM [1]: 51.8%
IC50 [4]: 1240 nM
inhibition [6]: 73.1%
inhibition [7]: 79.9%

COc1ccccc1OCC(=O)Nc1cccc(-c2nc3ccccc3c(=O)o2)c1
inhibition at 10 µM [1]: 35%

Nc1ncn(Cc2ccccc2)c2nc(SCCOc3ccccc3F)nc1-2
IC50 [3]: 426 nM
inhibition at 10 µM [1]: 61.4%
IC50 [4]: 2260 nM
inhibition [6]: 72.1%
inhibition [7]: 81.8%

c1ccc(-n2nnnc2Oc2cccc(CNCc3ccc4c(c3)OCO4)c2)cc1
inhibition at 10 µM [1]: 27.2%

O=C(Cc1c[nH]c2ccccc12)NNC(=S)Nc1cccnc1
inhibition at 10 µM [2]: 21.2%

O=C(Cc1c[nH]c2ccccc12)NNC(=S)Nc1ncccc1Br
inhibition at 10 µM [2]: 71.5%
IC50 [5]: 8490 nM
IC50 [8]: 12400 nM

N#Cc1cnn(-c2ccccc2)c1NC(=O)CSc1nnc(-c2ccco2)n1-c1ccc(F)cc1
inhibition at 10 µM [1]: 9.56%

O=C(COC(=O)c1cc(O)nc2ccccc12)c1ccc2ccccc2c1
inhibition at 10 µM [1]: 17%

Cc1nnc2sc(-c3ccc(NCc4ccc(F)cc4)cc3)nn12
inhibition at 10 µM [1]: 51%

O=[N+]([O-])c1cc(-c2ccc(/C=N/c3nc4ccccn4c3-c3ccco3)o2)ccc1Cl
IC50 [3]: 1100 nM
inhibition at 10 µM [1]: 77%
IC50 [4]: 3170 nM
inhibition [6]: 67.1%
inhibition [7]: 80.5%

c1cncc(Nc2nnc(Cc3c[nH]c4ccccc34)o2)c1
inhibition at 10 µM [2]: 33.4%

COc1nc(N/N=C/c2ccc(-c3ccc(Cl)c([N+](=O)[O-])c3)o2)nc(N2CCOCC2)n1
inhibition at 10 µM [1]: 39.8%

Cc1ccn2c(C(=O)N/N=C/c3cn(-c4ccccc4)nc3-c3cccs3)c(C)nc2c1
inhibition at 10 µM [1]: 48.2%

O=C(CSc1nnc2ccc(-c3ccccc3)nn12)NC(=O)Nc1ccccc1
IC50 [3]: 802 nM
inhibition at 10 µM [1]: 52.7%
IC50 [4]: 1640 nM
inhibition [6]: 75.1%
inhibition [7]: 76.1%

Cc1ccc(C(=O)COc2cccc(-c3cnc4ccccc4n3)c2)cc1
IC50 [3]: 314 nM
inhibition at 10 µM [1]: 56.2%
IC50 [4]: 3110 nM
inhibition [6]: 67%
inhibition [7]: 83.9%
